Test results as given in ChEMBL document CHEMBL1125648, “Quinazoline antifolates inhibiting thymidylate synthase: 4-thio-substituted analogues” (J Med Chem, 1991).

system: L1210; test: Growth inhibition of L1210 cells in culture; assay type: functional, cell-based; settings: Mus musculus

SMILES	IC50
CCN(Cc1ccc2ncnc(SC)c2c1)c1ccc(C(=O)NC(CCC(=O)O)C(=O)O)cc1 (stereo not given)	15 µM
CCN(Cc1ccc2ncnc(S)c2c1)c1ccc(C(=O)NC(CCC(=O)O)C(=O)O)cc1 (stereo not given)	31 µM
C#CCN(Cc1ccc2nc(N)nc(S)c2c1)c1ccc(C(=O)NC(CCC(=O)O)C(=O)O)cc1 (stereo not given)	18 µM

The remaining compounds from weak to strong by IC50, led by results:

IC50	SMILES
8 µM	C#CCN(Cc1ccc2nc(C)nc(S)c2c1)c1ccc(C(=O)NC(CCC(=O)O)C(=O)O)cc1 (stereo not given)
7.4 µM	C#CCN(Cc1ccc2ncnc(S)c2c1)c1ccc(C(=O)NC(CCC(=O)O)C(=O)O)cc1 (stereo not given)
